According to BindingDB's records for doi:10.1016/s0960-894x(99)00332-7 (Warner-Lambert, 1999):

What was measured:
[1] = target: T1, Human immunodeficiency virus type 1 protease (Human immunodeficiency virus 1, UniProt Q72874); experiment: ChEBML_79977; conditions: pH 4.7
Procedure: Inhibitory activity was evaluated against human immunodeficiency virus type 1(HIV-1) protease at pH 4.7

[2] = target: T1, Human immunodeficiency virus type 1 protease; experiment: Inhibitory activity was evaluated against human immunodeficiency virus type 1(HIV-1) protease at pH 6.2

IC50 [1] [nM]	IC50 [2] [nM]	Compound
28	–	CC(C)(C)c1cc2c(cc1SC1C(=O)CC(CCc3ccccc3)(c3ccccc3)OC1=O)CCCC2 (centres undefined) [3-(3-tert-Butyl-5,6,7,8-tetrahydro-naphthalen-2-ylsulfanyl)-4-hydroxy-6-phenethyl-6-phenyl-5,6-dihydro-pyran-2-one]
–	130	CC(C)(C)c1cc2c(cc1SC1C(=O)CC(CCc3ccccc3)(c3ccccc3)OC1=O)CCC2 (centres undefined) [3-(6-tert-Butyl-indan-5-ylsulfanyl)-4-hydroxy-6-phenethyl-6-phenyl-5,6-dihydro-pyran-2-one]
–	211	CC(C)(C)c1oc2ccccc2c1SC1C(=O)CC(CCc2ccccc2)(c2ccccc2)OC1=O (centres undefined) [3-(2-tert-Butyl-benzofuran-3-ylsulfanyl)-4-hydroxy-6-phenethyl-6-phenyl-5,6-dihydro-pyran-2-one]
28	–	CCc1c(SC2C(=O)CC(CCc3ccccc3)(c3ccccc3)OC2=O)sc2ccccc12 (centres undefined) [3-(3-Ethyl-benzo[b]thiophen-2-ylsulfanyl)-4-hydroxy-6-phenethyl-6-phenyl-5,6-dihydro-pyran-2-one]
